# Molecular target: T1, hFXR (Homo sapiens, UniProt Q96RI1)
# T1 construct: expressed in transfected cells; host or cells: CV-1 cells
# T1 sequence (Q96RI1 1-486): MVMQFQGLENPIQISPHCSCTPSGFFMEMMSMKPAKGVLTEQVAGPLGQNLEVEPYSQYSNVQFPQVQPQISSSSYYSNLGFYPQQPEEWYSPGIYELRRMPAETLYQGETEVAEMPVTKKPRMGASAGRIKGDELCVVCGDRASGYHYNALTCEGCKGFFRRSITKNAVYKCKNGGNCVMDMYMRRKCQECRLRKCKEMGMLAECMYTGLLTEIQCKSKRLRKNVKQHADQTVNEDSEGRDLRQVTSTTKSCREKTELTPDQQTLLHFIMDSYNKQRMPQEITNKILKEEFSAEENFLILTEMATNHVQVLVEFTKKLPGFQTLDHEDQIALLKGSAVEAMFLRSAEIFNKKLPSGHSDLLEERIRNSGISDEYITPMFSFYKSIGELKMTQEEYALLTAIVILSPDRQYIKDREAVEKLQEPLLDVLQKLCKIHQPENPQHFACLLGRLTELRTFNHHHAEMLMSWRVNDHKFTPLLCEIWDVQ
# T1 sequence (P19793 1-462 partner): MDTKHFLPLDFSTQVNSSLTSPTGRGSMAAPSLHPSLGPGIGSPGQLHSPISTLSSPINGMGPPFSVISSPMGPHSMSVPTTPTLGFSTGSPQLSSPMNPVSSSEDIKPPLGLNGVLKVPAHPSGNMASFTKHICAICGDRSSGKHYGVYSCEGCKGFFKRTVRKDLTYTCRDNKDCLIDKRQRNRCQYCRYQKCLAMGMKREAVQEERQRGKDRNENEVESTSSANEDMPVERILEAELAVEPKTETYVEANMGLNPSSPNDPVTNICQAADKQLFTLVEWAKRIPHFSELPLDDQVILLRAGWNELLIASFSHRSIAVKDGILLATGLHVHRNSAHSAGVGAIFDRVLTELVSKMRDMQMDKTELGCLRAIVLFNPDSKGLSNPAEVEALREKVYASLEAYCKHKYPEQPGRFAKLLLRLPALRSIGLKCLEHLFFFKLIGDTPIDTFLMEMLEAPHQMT
# Assay: In Vitro FXR Assay (TK)
# Assay type: cell-based
# Conditions: CV-1 cells transfected with hFXR, hRXR, TK-ECRE-luc and pCMX-YFP; compounds incubated 18 hrs; luminescence
# Description: CV-1 cells were seeded at a density of 2,000,000 cells in a T175 flask with DMEM+10% charcoal double-stripped FBS and incubated at 37° C. in 5% CO2 for 18 h (O/N).
# After 18 h of incubation, the medium in the T175 flask was changed with fresh DMEM+10% charcoal super-stripped serum. In a polypropylene tube, 2500 μL OptiMEM (Life Technologies, Cat #31985-062) was combined with expression plasmids for hFXR, hRXR, TK-ECRE-luc and pCMX-YFP. The tube was then briefly vortexed and incubated at room temperature for 5 minutes. Transfection reagent (X-tremeGENE HP from Roche, Cat #06 366 236 001) was added to the OptiMEM/plasmid mixture vortexed and incubated at room temperature for 20 minutes. Following incubation, the transfection reagent/DNA mixture complex was added to cells in the T175 flask and the cells were incubated at 37° C. in 5% CO2 for 18 h (O/N).
# Compounds were serially diluted in DMSO and added to transfected CV-1 cells. The cells were then incubated for 18 hrs. The next day cells were lysed and examined for luminescence.
row,Compound,EC50
1,"COc1ccc(-c2ccc(CN(C(=O)CC(C)(C)C)c3nccc4cc(N5CCC(CO)C5)ccc34)cc2)cc1C (stereo not shown) [Compound 6.16, N-(6-(3-(Hydroxymethyl)pyrrolidin-1-yl)isoquinolin-1-yl)-N-((4′-methoxy-3′-methyl-[1,1′-biphenyl]-4-yl)methyl)-3,3-dimethylbutanamide]",≤ 1000 nM
2,"COc1ccc(-c2ccc(CN(C(=O)CC(C)(C)C)c3nccc4c3CCCC4)cc2)cc1C [Compound 4.03, N-((4′-Methoxy-3′-methyl-[1,1′-biphenyl]-4-yl)methyl)-3,3-dimethyl-N-(5,6,7,8-tetrahydroisoquinolin-1-yl)butanamide]",1000 to 10000 nM
3,"COc1ccc(-c2ccc(CN(C(=O)CC(C)(C)C)c3nccc4cc(/C=C\CO)ccc34)cc2)cc1C [Compound 22, (Z)-N-(6-(3-Hydroxyprop-1-en-1-yl)isoquinolin-1-yl)-N-((4′-methoxy-3′-methyl-[1,1′-biphenyl]-4-yl)methyl)-3,3-dimethylbutanamide]",≤ 1000 nM
4,"CNc1ccc2c(N(Cc3ccc(-c4ccc(OC)c(C)c4)cc3)C(=O)CC(C)(C)C)nccc2c1 [Compound 6.11, N-((4′-Methoxy-3′-methyl-[1,1′-biphenyl]-4-yl)methyl)-3,3-dimethyl-N-(6-(methylamino)isoquinolin-1-yl)butanamide]",≤ 1000 nM
5,"COc1ccc(-c2ccc(CN(C(=O)CC(C)(C)C)c3nccc4ccc(C#N)cc34)cc2)cc1C [Compound 13, N-(7-Cyanoisoquinolin-1-yl)-N-((4′-methoxy-3′-methyl-[1,1′-biphenyl]-4-yl)methyl)-3,3-dimethylbutanamide]",1000 to 10000 nM
6,"COc1ccc(-c2ccc(CN(C(=O)CC(C)(C)C)c3nccc4cnccc34)cc2)cc1C [Compound 5.03, N-((4′-Methoxy-3′-methyl-[1,1′-biphenyl]-4-yl)methyl)-3,3-dimethyl-N-(2,6-naphthyridin-1-yl)butanamide]",1000 to 10000 nM
7,"COc1ccc(-c2ccc(CN(C(=O)CC(C)(C)C)c3nccc4ccncc34)cc2)cc1C [Compound 5.04, N-((4′-Methoxy-3′-methyl-[1,1′-biphenyl]-4-yl)methyl)-3,3-dimethyl-N-(2,7-naphthyridin-1-yl)butanamide]",1000 to 10000 nM
8,"COc1ccc(-c2ccc(CN(C(=O)CC(C)(C)C)c3nccc4cc(N5CCC5)ccc34)cc2)cc1C [Compound 6.04, N-(6-(Azetidin-1-yl)isoquinolin-1-yl)-N-((4′-methoxy-3′-methyl-[1,1′-biphenyl]-4-yl)methyl)-3,3-dimethylbutanamide]",≤ 1000 nM
9,"COc1ccc(-c2ccc(CN(C(=O)CC(C)(C)C)c3cccc4cnccc34)cc2)cc1C [Compound 5.01, N-(Isoquinolin-5-yl)-N-((4′-methoxy-3′-methyl-[1,1′-biphenyl]-4-yl)methyl)-3,3-dimethylbutanamide]",> 10000 nM
10,"COc1ccc(-c2ccc(CN(C(=O)CC(C)(C)C)c3nccc4cc(OCCC(C)O)ccc34)cc2)cc1C (stereo not shown) [Compound 10.03, N-(6-(3-Hydroxybutoxy)isoquinolin-1-yl)-N-((4′-methoxy-3′-methyl-[1,1′-biphenyl]-4-yl)methyl)-3,3-dimethylbutanamide]",≤ 1000 nM
11,"COc1ccc(-c2ccc(CN(C(=O)CC(C)(C)C)c3nccc4cc(N(C)C)ccc34)cc2)cc1C [Compound 6.1, N-(6-(Dimethylamino)isoquinolin-1-yl)-N-((4′-methoxy-3′-methyl-[1,1′-biphenyl]-4-yl)methyl)-3,3-dimethylbutanamide]",≤ 1000 nM
12,"COc1ccc([C@H]2CC[C@H](CN(C(=O)CC(C)(C)C)c3nccc4cc(CO)ccc34)CC2)cc1C [Compound 2, N-(6-(Hydroxymethyl)isoquinolin-1-yl)-N-((trans-4-(4-methoxy-3-methylphenyl)cyclohexyl)methyl)-3,3-dimethylbutanamide]",≤ 1000 nM
13,"COc1ccc(-c2ccc(CN(C(=O)CC(C)(C)C)c3nccc4cc(OCCS(C)(=O)=O)ccc34)cc2)cc1C [Compound 32, N-((4′-Methoxy-3′-methyl-[1,1′-biphenyl]-4-yl)methyl)-3,3-dimethyl-N-(6-(2-(methylsulfonyl)ethoxy)isoquinolin-1-yl)butanamide]",≤ 1000 nM
14,"COc1ncc(-c2ccc3c(N(Cc4ccc(-c5ccc(OC)c(C)c5)cc4)C(=O)CC(C)(C)C)nccc3c2)s1 [Compound 15, N-((4′-Methoxy-3′-methyl-[1,1′-biphenyl]-4-yl)methyl)-N-(6-(2-methoxythiazol-5-yl)isoquinolin-1-yl)-3,3-dimethylbutanamide]",1000 to 10000 nM
15,"COc1ccc(-c2ccc(CN(C(=O)CC(C)(C)C)c3ncnc4ccccc34)cc2)cc1C [Compound 4.01, N-((4′-Methoxy-3′-methyl-[1,1′-biphenyl]-4-yl)methyl)-3,3-dimethyl-N-(quinazolin-4-yl)butanamide]",1000 to 10000 nM
16,"COc1ccc(-c2ccc(CN(C(=O)CC(C)(C)C)c3nccc4cc(OCCCCO)ccc34)cc2)cc1C [Compound 8.1, N-(6-(4-Hydroxybutoxy)isoquinolin-1-yl)-N-((4′-methoxy-3′-methyl-[1,1′-biphenyl]-4-yl)methyl)-3,3-dimethylbutanamide]",≤ 1000 nM

# More lines, now with the values ahead:
row,EC50,Compound
1,≤ 1000 nM,"COc1ccc(-c2ccc(CN(C(=O)CC(C)(C)C)c3nccc4cc(OC(C)CCO)ccc34)cc2)cc1C (stereo not shown) [Compound 10.01, N-(6-((4-Hydroxybutan-2-yl)oxy)isoquinolin-1-yl)-N-((4′-methoxy-3′-methyl-[1,1′-biphenyl]-4-yl)methyl)-3,3-dimethylbutanamide]"
2,≤ 1000 nM,"COc1ccc(-c2ccc(CN(C(=O)CC(C)(C)C)c3nccc4cc(OCC(N)=O)ccc34)cc2)cc1C [Compound 8.03, N-(6-(2-Amino-2-oxoethoxy)isoquinolin-1-yl)-N-((4′-methoxy-3′-methyl-[1,1′-biphenyl]-4-yl)methyl)-3,3-dimethylbutanamide]"
3,≤ 1000 nM,"COCCOCc1ccc2c(N(Cc3ccc(-c4ccc(OC)c(C)c4)cc3)C(=O)CC(C)(C)C)nccc2c1 [Compound 9.04, N-((4′-Methoxy-3′-methyl-[1,1′-biphenyl]-4-yl)methyl)-N-(6-((2-methoxyethoxy)methyl)isoquinolin-1-yl)-3,3-dimethylbutanamide]"
4,≤ 1000 nM,"CCCOc1ccc2c(N(Cc3ccc(-c4ccc(OC)c(C)c4)cc3)C(=O)CC(C)(C)C)nccc2c1 [Compound 11.02, N-((4′-Methoxy-3′-methyl-[1,1′-biphenyl]-4-yl)methyl)-3,3-dimethyl-N-(6-propoxyisoquinolin-1-yl)butanamide]"
5,≤ 1000 nM,"COc1ccc(-c2ccc(CN(C(=O)CC(C)(C)C)c3nccc4cc(OCCO)ccc34)cc2)cc1C [Compound 8.11, N-(6-(2-Hydroxyethoxy)isoquinolin-1-yl)-N-((4′-methoxy-3′-methyl-[1,1′-biphenyl]-4-yl)methyl)-3,3-dimethylbutanamide]"
6,> 10000 nM,"COC(=O)c1cc(-c2ccc(OC)c(C)c2)ccc1CN(C(=O)CC(C)(C)C)c1nccc2cc(OC)ccc12 [Compound 20.01, Methyl 4′-methoxy-4-((N-(6-methoxyisoquinolin-1-yl)-3,3-dimethylbutanamido)methyl)-3′-methyl-[1,1′-biphenyl]-3-carboxylate]"
7,1000 to 10000 nM,"COC(=O)COc1ccc2c(N(Cc3ccc(-c4ccc(OC)c(C)c4)cc3)C(=O)CC(C)(C)C)nccc2c1 [Compound 9.01, Methyl 2-((1-(N-((4′-methoxy-3′-methyl-[1,1′-biphenyl]-4-yl)methyl)-3,3-dimethylbutanamido)isoquinolin-6-yl)oxy)acetate]"
8,1000 to 10000 nM,"COc1ccc(-c2ccc(CN(C(=O)CC(C)(C)C)c3nccc4cc(OCCCN(C)C)ccc34)cc2)cc1C [Compound 8.12, N-(6-(3-(Dimethylamino)propoxy)iso-quinolin-1-yl)-N-((4′-methoxy-3′-methyl-[1,1′-biphenyl]-4-yl)methyl)-3,3-dimethylbutanamide]"
9,≤ 1000 nM,"COCCCOc1ccc2c(N(Cc3ccc(-c4ccc(OC)c(C)c4)cc3)C(=O)CC(C)(C)C)nccc2c1 [Compound 8.08, N-((4′-Methoxy-3′-methyl-[1,1′-biphenyl]-4-yl)methyl)-N-(6-(3-methoxypropoxy)isoquinolin-1-yl)-3,3-dimethylbutanamide]"

# Source: patent US20200131132A1, “FARNESOID X RECEPTOR AGONISTS AND USES THEREOF” (Metacrine, Inc., priority 2017, published 2020)
